Laboratory results taken from patent publication US6562595B2, “Dominant selectable marker for gene transformation and disruption in yeasts” (McGill University, priority 2000, dated 2003).

Columns and labels:
[1] = system: C. albicans strain SC5314; assay: Halo assay (zones of inhibition on confluent plates); type: cell-based, Candida albicans
Experimental: (§1) Confluent plates of either S. cerevisiae diploid strain SEY6210 (left panel) or C. albicans strain SC5314 (right panel) were spotted with 5 μl of destomycin (DSM), blasticidin (BSN), nourseothricin (NST), geneticin (G418), zeocin (ZEO), and puromycin (PUR) using concentrations of 10 mg/ml, 1 mg/ml, 0.5 mg/ml, 0.25 mg/ml, 0.125 mg/ml, and 0.06 mg/ml (top to bottom). Zones of inhibition were examined after overnight growth; clear halos indicate antifungal activity;
(§2) To explore the possibility of developing a dominant selectable marker for C. albicans, geneticin, the aminoglycoside used in dominant selection studies in S. cerevisiae was initially examined for antifungal activity in C. albicans (FIG. 1). […] When a number of alternative commercially available antibiotics including zeocin, destomycin, nourseothricin, blasticidin, and puromycin were tested for antifungal activity, the present inventors discovered that C. albicans was sensitive to nourseothricin at a concentration of about 200 μg/ml. […] C. albicans was also found to be sensitive to blasticidin. […] (Webster et al., 1983, Gene 26:243-252).

[2] = system: S. cerevisiae diploid strain SEY6210; assay: as above; type: cell-based, Saccharomyces cerevisiae; settings: at concentration dramatically below that at which geneticin acts
Experimental: as §1, §2

[3] = system: C. albicans CAI4 maintaining pRC18 vector and parent strain SC5314; assay: Growth on nourseothricin-supplemented plates; type: cell-based, Candida albicans; settings: 400 μg/ml; irrespective of carbon source (1% Casamino acid or YEP 2% glucose)
Experimental: ASTHMA, PSMP, and vector alone (lacking either SAT expression module) plasmids were transformed into CAI4 and directly selected on YPD-drug supplemented plates (400 μg/ml) prior to being restreaked onto a YPD plate containing 400 μg/ml nourseothricin. A) Six independent ASTHMA transformants, as well as the negative controls CAI4, containing pRC18, and the parent strain, SC5314 are shown after two days growth at 30° C. on YPD plates containing 400 μg/ml NST. B) Four independent PSMP transformants, as well as the negative controls, CAI4 maintaining pRC18, and SC5314, grown on YPD (left plate), and either derepressing conditions (1% Casamino acid+300 μg/ml NST, center plate), or repressing conditions (YPD+300 μg/ml NST, right plate) for PCK1 promoter-dependent expression of SAT. Plates were incubated two days at 30° C.; and
The composition of a YPD medium for culturing yeast contains 1% yeast extract, 2% bactopeptone and 2% glucose. Agar was added in an amount of 2% to the medium in the case of a plate form. Transformant were selected on Ura+ protophy and subsequently streaked onto nourseothricin-supplemented plates containing either 1% Casamino acid (derepressing conditions) or YEP containing 2% glucose (repressing conditions) as alternative carbon sources. […]

[4] = system: S. cerevisiae strain maintaining the geneticin resistance gene KanR; assay: Nourseothricin sensitivity of geneticin-resistant (KanR) strain; type: cell-based, Saccharomyces cerevisiae; settings: S. cerevisiae strain with KanR
Source text: The present inventors also compared the sensitivity of NST to geneticin in S. cerevisiae.

Compound | antifungal (fungicidal) activity by halo assay ([1]; C. albicans SC5314, 5 μl spots, 10 to 0.06 mg/ml, overnight growth) | concentration at which C. albicans is sensitive ([1]; C. albicans) | effect of medium on antifungal effectiveness ([1]; rich, high-salt YPD plates versus minimal YNB plates) | antifungal activity by halo assay [2] | growth of strains lacking SAT in the presence of the drug [3] | cross-resistance conferred by KanR [4]
CN(CC[C@H](N)CC(=O)N[C@H]1C=C[C@H](n2ccc(N)nc2=O)O[C@@H]1C(=O)O)C(=N)N [blasticidin] | sensitive |  |  |  |  | 
nourseothricin |  | about 200 μg/ml | dramatically more effective on rich media | potent antifungal activity | failed to grow | failed to confer resistance
